Measured values reported in patent publication US4684664A, “Derivatives of β-(4-isocyano-1,2,3,4-diepoxycyclopentyl) acrylic acid” (Kureha Kagaku Kogyo Kabushiki Kaisha, priority 1984, dated 1987).
Converted amounts (≈) assume the structure as drawn.

What was measured:
Type in all cases: cell-based
[1] = system: Salmonella paratyphi-A 1015; assay: Antibacterial activity, agar-dilution MIC, organism No. 10; conditions: Salmonella enterica, PARATYPHI, read-out: Minimum Inhibitory Concentration
Procedure, shortened: (§1)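 Specimen is incorporated into bouillon-agar medium at graded levels and the organisms are tested on these plates. The lowest level preventing growth is taken as the MIC (μg/ml of medium).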

Enterobacter cloacae 963 = assay: Antibacterial activity, agar-dilution MIC, organism No. 24; conditions: Enterobacter cloacae, 963; Organism No. 24, bouillon-agar; read-out: Minimum Inhibitory Concentration
Procedure, shortened: as §1

[2] = system: Candida albicans IAM 4905; assay: Antifungal activity, agar-dilution MIC, organism No. 29; conditions: Candida albicans, IAM4905; Organism No. 29, bouillon-agar; read-out: Minimum Inhibitory Concentration
Procedure, shortened: as §1

[3] = system: Mycoplasma pneumoniae IID817; assay: Antimycoplasmal activity, MIC by phenol red colour change, organism No. 28; conditions: Mycoplasma, IID817; Organism No. 28, PPLO broth + 1% glucose, 37° C.; read-out: Minimum Inhibitory Concentration (MIC)
Description: Mycoplasma pneumoniae IID817 was used as the test microorganism in a culture medium prepared by adding 1% of glucose to "PPLO broth (manufactured by Difco Co.) liquid culture medium" at 37° C. with phenol red as an indicator, thereby culturing the test microorganism.

[4] = system: Proteus morganii IFO 3848; assay: Antibacterial activity, agar-dilution MIC, organism No. 18; conditions: Morganella morganii, IFO3848; Organism No. 18, bouillon-agar; read-out: Minimum Inhibitory Concentration
Procedure, shortened: as §1

[5] = system: Klebsiella pneumoniae PCI-602; assay: Antibacterial activity, agar-dilution MIC, organism No. 7; conditions: Klebsiella pneumoniae, PCI602; Organism No. 7, bouillon-agar; read-out: Minimum Inhibitory Concentration
Procedure, shortened: as §1

[6] = system: Streptococcus faecium IFO 3826; assay: Antibacterial activity, agar-dilution MIC, organism No. 27; conditions: Enterococcus faecium, IFO3826; Organism No. 27, bouillon-agar; read-out: Minimum Inhibitory Concentration
Procedure, shortened: as §1

[7] = system: Proteus mirabilis IFO 3849; assay: Antibacterial activity, agar-dilution MIC, organism No. 19; conditions: Proteus mirabilis, IFO3849; Organism No. 19, bouillon-agar; read-out: Minimum Inhibitory Concentration
Procedure, shortened: as §1

[8] = system: Bacillus subtilis ATCC 6633; assay: Antibacterial activity, agar-dilution MIC, organism No. 14; conditions: Bacillus subtilis, ATCC6633; Organism No. 14, bouillon-agar; read-out: Minimum Inhibitory Concentration
Procedure, shortened: as §1

[9] = system: Escherichia coli K12 C600 IAM 1264; assay: Antibacterial activity, agar-dilution MIC, organism No. 6; conditions: Escherichia coli, IAM1264; Organism No. 6, bouillon-agar; read-out: Minimum Inhibitory Concentration
Procedure, shortened: as §1

[10] = system: Salmonella enteritidis G 14; assay: Antibacterial activity, agar-dilution MIC, organism No. 12; conditions: Salmonella enterica, ENTERITIDIS; Organism No. 12, bouillon-agar; read-out: Minimum Inhibitory Concentration
Procedure, shortened: as §1

[11] = system: Salmonella typhimurium IID 971; assay: Antibacterial activity, agar-dilution MIC, organism No. 8; conditions: Salmonella enterica; Organism No. 8, bouillon-agar; read-out: Minimum Inhibitory Concentration
Procedure, shortened: as §1

[12] = system: Escherichia coli NIHJ-JC-2; assay: Antibacterial activity, agar-dilution MIC, organism No. 5; conditions: Escherichia coli, NIHJJC2; Organism No. 5, bouillon-agar; read-out: Minimum Inhibitory Concentration
Procedure, shortened: as §1

[13] = system: Staphylococcus aureus MS 353; assay: Antibacterial activity, agar-dilution MIC, organism No. 3; conditions: Staphylococcus aureus, MS353; Organism No. 3, bouillon-agar; read-out: Minimum Inhibitory Concentration
Procedure, shortened: as §1

[14] = system: Pseudomonas aeruginosa PAO 1; assay: Antibacterial activity, agar-dilution MIC, organism No. 17; conditions: Pseudomonas aeruginosa, PAO1; Organism No. 17, bouillon-agar; read-out: Minimum Inhibitory Concentration
Procedure, shortened: as §1

[15] = system: Salmonella shottmuelleri 8006; assay: Antibacterial activity, agar-dilution MIC, organism No. 11; conditions: Salmonella, 8006; Organism No. 11, bouillon-agar; read-out: Minimum Inhibitory Concentration
Procedure, shortened: as §1

Proteus vulgaris OX-19 = assay: Antibacterial activity, agar-dilution MIC, organism No. 20; conditions: Proteus vulgaris, OX19; Organism No. 20, bouillon-agar; read-out: Minimum Inhibitory Concentration
Procedure, shortened: as §1

[16] = system: Serratia marcescens IAM 1184; assay: Antibacterial activity, agar-dilution MIC, organism No. 13; conditions: Serratia marcescens, IAM1184; Organism No. 13, bouillon-agar; read-out: Minimum Inhibitory Concentration
Procedure, shortened: as §1

Salmonella typhi 901 = assay: Antibacterial activity, agar-dilution MIC, organism No. 9; conditions: Salmonella enterica, TYPHI, read-out: Minimum Inhibitory Concentration
Procedure, shortened: as §1

[17] = system: Proteus rettgeri IFO 3850; assay: Antibacterial activity, agar-dilution MIC, organism No. 22; conditions: Providencia rettgeri, IFO3850; Organism No. 22, bouillon-agar; read-out: Minimum Inhibitory Concentration
Procedure, shortened: as §1

[18] = system: Pseudomonas aeruginosa IFO 3445; assay: Antibacterial activity, agar-dilution MIC, organism No. 15; conditions: Pseudomonas aeruginosa, IFO3445; Organism No. 15, bouillon-agar; read-out: Minimum Inhibitory Concentration
Procedure, shortened: as §1

[19] = system: Aspergillus niger IFO 6342; assay: Antifungal activity, agar-dilution MIC, organism No. 30; conditions: Aspergillus niger, IFO6342; Organism No. 30, bouillon-agar; read-out: Minimum Inhibitory Concentration
Procedure, shortened: as §1

[20] = system: Streptococcus pyogenes Cook; assay: Antibacterial activity, agar-dilution MIC, organism No. 4; conditions: Streptococcus pyogenes; Organism No. 4, bouillon-agar; read-out: Minimum Inhibitory Concentration
Procedure, shortened: as §1

[21] = system: Enterobacter aerogenes ATCC 13048; assay: Antibacterial activity, agar-dilution MIC, organism No. 23; conditions: Klebsiella aerogenes, ATCC13048; Organism No. 23, bouillon-agar; read-out: Minimum Inhibitory Concentration
Procedure, shortened: as §1

Proteus vulgaris HX-19 = assay: Antibacterial activity, agar-dilution MIC, organism No. 21; conditions: Proteus vulgaris, HX19; Organism No. 21, bouillon-agar; read-out: Minimum Inhibitory Concentration
Procedure, shortened: as §1

[22] = system: Streptococcus pyogenes IFO 3340; assay: Antibacterial activity, agar-dilution MIC, organism No. 26; conditions: Streptococcus pyogenes, IFO3340; Organism No. 26, bouillon-agar; read-out: Minimum Inhibitory Concentration
Procedure, shortened: as §1

[23] = system: Micrococcus luteus ATCC 9341; assay: Antibacterial activity, agar-dilution MIC, organism No. 25; conditions: Micrococcus luteus, ATCC9341; Organism No. 25, bouillon-agar; read-out: Minimum Inhibitory Concentration
Procedure, shortened: as §1

[24] = system: Staphylococcus aureus FDA 209PJc-1; assay: Antibacterial activity, agar-dilution MIC, organism No. 1; conditions: Staphylococcus aureus, FDA209PJC1; Organism No. 1, bouillon-agar; read-out: Minimum Inhibitory Concentration
Procedure, shortened: as §1

[25] = system: Staphylococcus aureus Terajima; assay: Antibacterial activity, agar-dilution MIC, organism No. 2; conditions: Staphylococcus aureus; Organism No. 2, bouillon-agar; read-out: Minimum Inhibitory Concentration
Procedure, shortened: as §1

[26] = system: Pseudomonas aeruginosa NCTC 10490; assay: Antibacterial activity, agar-dilution MIC, organism No. 16; conditions: Pseudomonas aeruginosa, NCTC10490; Organism No. 16, bouillon-agar; read-out: Minimum Inhibitory Concentration
Procedure, shortened: as §1

Compound	MIC [1]	MIC (Enterobacter cloacae 963)	MIC [2]	MIC [3]	MIC [4]	MIC [5]	MIC [6]	MIC [7]	MIC [8]	MIC [9]	MIC [10]	MIC [11]	MIC [12]	MIC [13]	MIC [14]	MIC [15]	MIC (Proteus vulgaris OX-19)	MIC [16]	MIC (Salmonella typhi 901)	MIC [17]	further results
[C-]#[N+]C12CC3(/C=C/C(=O)Nc4ccccc4O)OC3C1O2 (stereo not drawn) [compound 58]	1.56 µg/mL (≈ 5.49 µM)	100 µg/mL (≈ 352 µM)	12.5 µg/mL (≈ 44 µM)	< 0.2 µg/mL	1.56 µg/mL (≈ 5.49 µM)	0.78 µg/mL (≈ 2.74 µM)	12.5 µg/mL (≈ 44 µM)	12.5 µg/mL (≈ 44 µM)	12.5 µg/mL (≈ 44 µM)	12.5 µg/mL (≈ 44 µM)	3.13 µg/mL (≈ 11 µM)	6.25 µg/mL (≈ 22 µM)	12.5 µg/mL (≈ 44 µM)	3.13 µg/mL (≈ 11 µM)	> 200 µg/mL	1.56 µg/mL (≈ 5.49 µM)	0.78 µg/mL (≈ 2.74 µM)	12.5 µg/mL (≈ 44 µM)	3.13 µg/mL (≈ 11 µM)	1.56 µg/mL (≈ 5.49 µM)	MIC [18]: > 200 µg/mL; MIC [19]: 12.5 µg/mL (≈ 44 µM); MIC [20]: 12.5 µg/mL (≈ 44 µM); MIC [21]: > 200 µg/mL; MIC (Proteus vulgaris HX-19): 0.78 µg/mL (≈ 2.74 µM); MIC [22]: 3.13 µg/mL (≈ 11 µM); MIC [23]: 0.2 µg/mL (≈ 0.704 µM); MIC [24]: 3.13 µg/mL (≈ 11 µM); MIC [25]: 3.13 µg/mL (≈ 11 µM); MIC [26]: > 200 µg/mL
[C-]#[N+]C12CC3(/C=C/C(=O)OCC(=O)c4ccccc4)OC3C1O2 (stereo not drawn) [Compound No. 3]	6.25 µg/mL (≈ 20.1 µM)	> 100 µg/mL	0.8 µg/mL (≈ 2.57 µM)	0.05 µg/mL	3.13 µg/mL (≈ 10.1 µM)	6.25 µg/mL (≈ 20.1 µM)	3.13 µg/mL (≈ 10.1 µM)	50 µg/mL (≈ 161 µM)	50 µg/mL (≈ 161 µM)	50 µg/mL (≈ 161 µM)	12.5 µg/mL (≈ 40.2 µM)	50 µg/mL (≈ 161 µM)	50 µg/mL (≈ 161 µM)	0.05 µg/mL (≈ 0.161 µM)	> 100 µg/mL	6.25 µg/mL (≈ 20.1 µM)	1.56 µg/mL (≈ 5.01 µM)	> 100 µg/mL	12.5 µg/mL (≈ 40.2 µM)	50 µg/mL (≈ 161 µM)	MIC [18]: > 100 µg/mL; MIC [19]: 3.13 µg/mL (≈ 10.1 µM); MIC [20]: 6.25 µg/mL (≈ 20.1 µM); MIC [21]: > 100 µg/mL; MIC (Proteus vulgaris HX-19): 0.05 µg/mL (≈ 0.161 µM); MIC [22]: 6.25 µg/mL (≈ 20.1 µM); MIC [23]: 0.2 µg/mL (≈ 0.642 µM); MIC [24]: 0.2 µg/mL (≈ 0.642 µM); MIC [25]: 3.13 µg/mL (≈ 10.1 µM); MIC [26]: > 100 µg/mL
[C-]#[N+]C12CC3(/C=C/C(=O)Nc4cccc(O)c4)OC3C1O2 (stereo not drawn) [compound 57]	3.13 µg/mL (≈ 11 µM)	100 µg/mL (≈ 352 µM)	50 µg/mL (≈ 176 µM)	< 0.2 µg/mL	1.56 µg/mL (≈ 5.49 µM)	1.56 µg/mL (≈ 5.49 µM)	25 µg/mL (≈ 87.9 µM)	6.25 µg/mL (≈ 22 µM)	6.25 µg/mL (≈ 22 µM)	12.5 µg/mL (≈ 44 µM)	3.13 µg/mL (≈ 11 µM)	12.5 µg/mL (≈ 44 µM)	12.5 µg/mL (≈ 44 µM)	1.56 µg/mL (≈ 5.49 µM)	> 200 µg/mL	1.56 µg/mL (≈ 5.49 µM)	1.56 µg/mL (≈ 5.49 µM)	12.5 µg/mL (≈ 44 µM)	3.13 µg/mL (≈ 11 µM)	3.13 µg/mL (≈ 11 µM)	MIC [18]: > 200 µg/mL; MIC [19]: 50 µg/mL (≈ 176 µM); MIC [20]: 12.5 µg/mL (≈ 44 µM); MIC [21]: > 200 µg/mL; MIC (Proteus vulgaris HX-19): 0.78 µg/mL (≈ 2.74 µM); MIC [22]: 3.13 µg/mL (≈ 11 µM); MIC [23]: 0.1 µg/mL (≈ 0.352 µM); MIC [24]: 1.56 µg/mL (≈ 5.49 µM); MIC [25]: 6.25 µg/mL (≈ 22 µM); MIC [26]: > 200 µg/mL
[C-]#[N+]C12CC3(/C=C/C(=O)OCc4cccc([N+](=O)[O-])c4)OC3C1O2 (stereo not drawn) [compound 14]	200 µg/mL (≈ 609 µM)	> 200 µg/mL	12.5 µg/mL (≈ 38.1 µM)	3.13 µg/mL	200 µg/mL (≈ 609 µM)	200 µg/mL (≈ 609 µM)	200 µg/mL (≈ 609 µM)	> 200 µg/mL	200 µg/mL (≈ 609 µM)	> 200 µg/mL	> 200 µg/mL	> 200 µg/mL	> 200 µg/mL	200 µg/mL (≈ 609 µM)	> 200 µg/mL	200 µg/mL (≈ 609 µM)	200 µg/mL (≈ 609 µM)	> 200 µg/mL	200 µg/mL (≈ 609 µM)	> 200 µg/mL	MIC [18]: > 200 µg/mL; MIC [19]: 25 µg/mL (≈ 76.2 µM); MIC [20]: > 200 µg/mL; MIC [21]: > 200 µg/mL; MIC (Proteus vulgaris HX-19): 12.5 µg/mL (≈ 38.1 µM); MIC [22]: > 200 µg/mL; MIC [23]: 0.78 µg/mL (≈ 2.38 µM); MIC [24]: 200 µg/mL (≈ 609 µM); MIC [25]: 200 µg/mL (≈ 609 µM); MIC [26]: > 200 µg/mL
